Laboratory results from PMC10704437, “Sterol-activated amyloid beta fibril formation” (The Journal of Biological Chemistry, 2023).
Like-named read-outs stand apart in the source and are kept apart here.

Experiments:
Aβ42 [1] = target: T1, Aβ42 (Homo sapiens, UniProt P05067); test: Aβ42 nucleation rate versus [Aβ42]^2 (ThT, early lag phase, linear fit); type: biochemical; conditions: linear least-squares fit of Rate-versus-[Aβ42]^2; free ligand 17 × Kd
T1 construct: Small red spheres mark the Aβ42 peptide C-terminal residue, A42; purchased Sigma-Aldrich Corp
Procedure: Reaction 1 of the NEF scheme assumes nucleation is second order in Aβ42 monomer concentration. The reaction order was determined for ligand-bound and free forms of Aβ42 by plotting nucleation rates versus [Aβ42]^n, where n, the reaction order, is 1, 2, or 3—such plots become linear only when n equals the reaction order ([54]). Nucleus formation was monitored via ThT fluorescence in the region of the progress curve where nucleation is rate limiting—the very early stage of the lag phase. Rates were obtained by linear least-squares fitting of progress curves. In all cases, fits were initiated at t0 and deviation from linearity was within experimental error (i.e., χ^2 > 0.95). […] The nucleation rate constants are given by the slopes of the plots (obtained by linear least-squares fitting) and are within the error of those predicted by NEF fitting, see Table 2.
Figure 4 Nucleation reaction order. Reactions were monitored via binding-induced changes in ThT fluorescence (λex = 450 nm, λem = 482 nm). All reactions were performed under the following conditions: ThT (30 μM), DMSO (0.5 % v/v), and K2PO4 (50 mM), pH 7.4, 25 °C ± 2 deg. C. […] A, unliganded Aβ42 nucleation. Titrant concentrations: Aβ42 (1.0, 2.0, 3.0, or 4.0 μM). B, CH•Aβ42 nucleation. […]
The formation of fibril nuclei was monitored via the Aβ-binding induced change in ThT fluorescence (λex = 450 nm, λem = 482 nm, ([42])). […]

Aβ42 [2] = target: T1, Aβ42; test: Aβ42 fibril formation versus CS percentage (ThT); type: biochemical; conditions: [CS]+[CH] 20 μM, Aβ42 1.0 μM
Procedure: To experimentally assess the potential impact of CS on fibril formation in vivo, fibril synthesis was monitored over a series of CS/CH ratios that span the physiological range.
Figure 8 Aβ42fibril formation versus CS percentage. Fibril formation was detected via binding-induced changes in ThT fluorescence (λex = 450 nm, λem = 482 nm). Reaction conditions: Aβ42 (1.0 μM), CS percent (as indicated), [CS] + [CH] (20 μM), ThT (30 μM), DMSO (0.5 % v/v), K2PO4 (50 mM), pH 7.4, 25 °C ± 2 deg. C. Progress curves were performed in triplicate and averaged data are shown. Lines passing through the data represent the behavior predicted by the NEF model using the Table 2 rate constants.

Aβ42 [3] = target: T1, Aβ42; test: Sterol binding to Aβ42, pre-steady-state stopped-flow fluorescence; conditions: for kon: calculated by dividing koff by Kd; for koff: determined in DHE displacement studies, stopped-flow, 25 °C
Procedure: To establish the rates at which Aβ42•ligand complexes form and dissociate, the rate constants governing the binding reactions were determined. DHE binding was monitored in real time using a stopped-flow fluorimeter via binding-induced changes in DHE fluorescence. The reactions are pseudo first order in [ligand] and kobs was obtained by least-squares fitting progress curves to a single-exponential equation ([44], [45]). kobs values were determined (in triplicate) at a series of Aβ42 concentrations and the averaged values are plotted versus [Aβ42] in Figure 2B. kon and koff are given by the slope and intercept of the kobs-versus-[Aβ42] plot obtained by linear least-square fitting ([44], [45]). […] The rate constants are compiled in Table 1.
Figure 2 Sterol binding to Aβ42—pre-steady state studies.A, DHE binding. Reactions were monitored via binding induced changes in DHE fluorescence using a stopped-flow fluorimeter (λex = 325, λem > 400 nm). Fluorescence intensity, I, is reported relative to the intensity in the absence of ligand, Io. […] C was rapidly mixed (1:1, v/v) with a solution identical except that Aβ42 was replaced by DHE (40 nM, 2.7 × Kd). The bindingreaction curve shown is the average of five independent progress curves. The averaged curve was a least-squares fit to a single-exponential equation and the resulting best fit (indicated by the red line) yielded kobs. B, DHE kon and koff. kobs values obtained as in Panel A were determined in triplicate at varying Aβ42 concentrations and the averaged values are shown plotted versus [Aβ42]. kon and koff are given by the slope and intercept of a linear least-squares fit of the kobsversus [Aβ42] plot. C and D, CH and CS displacement reactions.
Pre-steady-state binding of sterols to Aβ42 was monitored via the binding-induced change in DHE fluorescence (λex = 325, λem > 400 nm) using an Applied Photophysics SX20 stopped-flow fluorimeter.
Three progress curves (each an average of five independently obtained curves) were collected at five separate Aꞵ42 concentrations. The observed rate constant (kobs) at a given [Aβ42] was obtained by fitting the average of the three curves to a single-exponential equation using Pro-K software ([75]). kon and koff were obtained from the slopes and intercepts predicted by linear least-squares analysis of kobs versus [Aβ42] plots.
C. […] Progress curves were determined in triplicate and koff was obtained by least-squares fitting the averaged curves to a single-exponential equation using Pro-K.

[4] = set-up: method as in PMID 4525165; conditions: reported in 1973; cited from earlier work

T1 sequence (P05067 672-713 limits assumed): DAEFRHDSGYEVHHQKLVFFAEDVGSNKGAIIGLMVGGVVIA

Structure (SMILES)	Nucleation rate constant, linear model (Aβ42 [1])	fibril formation lag-time (Aβ42 [2]; 0.1% CS)	fibril formation lag-time (Aβ42 [2]; 1% CS)	fibril formation lag-time (Aβ42 [2]; 10% CS)	Kd (Aβ42 [3]) [nM]	kon (Aβ42 [3]) [M⁻¹ s⁻¹]	koff (Aβ42 [3]) [s⁻¹]	Kd (Aβ42 [3]; ratio of rate constants, read-out: koff/kon) [nM]	critical micelle concentration (CMC) [4] [nM]
CC(C)CCC[C@@H](C)[C@H]1CC[C@H]2[C@@H]3CC=C4C[C@@H](OS(=O)(=O)O)CC[C@]4(C)[C@H]3CC[C@]12C [CS, cholesterol 3-sulfate]	1.5 (0.1) × 10^−11 nM^−1 s^−1	shortens by several hours	nearly halved	approaches that of pure CS	36	2.4e+07	0.88		
CC(C)CCC[C@@H](C)[C@H]1CC[C@H]2[C@@H]3CC=C4C[C@@H](O)CC[C@]4(C)[C@H]3CC[C@]12C [CH, cholesterol]	7.3 (0.1) × 10^−14 nM^−1 s^−1					2.1e+07	2.5	120	25 to 40
